# Source: patent US20260102427A1, “COMPOSITIONS OF NANOPARTICLES FOR TREATMENT OF NEUROPATHIC PAIN” (NANOBIOTIX S.A., priority 2022, published 2026)
# Experiments:
# Assay type in all cases: in vivo, rat
# [1] = test system: oxaliplatin-induced mechanical allodynia; assay: Example 5: mechanical allodynia (von Frey PWT) in oxaliplatin chemotherapy-induced peripheral neuropathy model; settings: Pregabalin 30 mg/kg p.o. each test day, tested 2 hr post dose
# Method: The aim of this study was to investigate the effect of a single intraplantar treatment with Nanoparticles from Example 1 (NP1B) at the dose of 11 g/L, Nanoparticles from Example 2 (NP2B) at 53 g/L, Nanoparticles from Example 3 (NP20B) at 57 g/L, and Nanoparticles from Example 4 (NP20A) at 59 g/L, each in 20 μL of injection volume, on the mechanical allodynia (as assessed using von Frey) that occurs following systemic administration of oxaliplatin in the rat.
# Experimental subjects: Seventy-two (72) adult male Sprague-Dawley rats were used for this study. […]
# (§1) Static mechanical (tactile) allodynia evaluation: Measurement of paw withdrawal threshold (PWT) was achieved using calibrated (force; g) von-Frey monofilaments (Touch-Test Sensory Evaluator; Scientific Marketing Associates) applied to the plantar surface of the hind paw. Withdrawal threshold was determined by increasing and decreasing stimulus intensity and estimated using Dixon's up-down method. […]
# Baseline readings for latency to withdrawal (sec) were assessed on three consecutive days (Day −3, Day −2 and Day −1). […]
# Mechanical allodynia was subsequently re-assessed 2-3 times per week following injection, out to D26 post-oxaliplatin. […]
# [2] = test system: oxaliplatin-induced mechanical allodynia; assay: Example 6: mechanical allodynia (von Frey PWT) in oxaliplatin CIPN model, dose effect, left (treated) vs right (vehicle) paw; settings: Pregabalin 30 mg/kg p.o. each test day; both left and right paws
# Source text: Animals were allowed to recover from transportation for at least one week before commencing experiments.
# Data is presented as mean±SEM.
# [3] = test system: STZ-induced mechanical allodynia; assay: Example 7: mechanical allodynia (von Frey PWT) in streptozotocin diabetes-induced peripheral neuropathy model; settings: Pregabalin 30 mg/kg p.o. 2 hr prior to each Von Frey test
# Method: The aim of the study is to investigate the effect of a single intraplantar treatment with Nanoparticles from Example 3 at the doses of 117 g/L in 20 μL of injection volume, 58 g/L in 20 μL of injection volume, and 18 g/L in 10 μL of injection volume on the mechanical allodynia (as assessed using von Frey) that occurs following systemic administration of Streptozocin in the rat.
# Experimental subjects: Sixty-six (66) adult male Sprague-Dawley rats (180-210 g) were used for this study. […]
# Confirmation of hyperglycaemia: On Day 7 (D7) one drop of tail vein blood was obtained by a needle prick on the conscious rats. The blood glucose levels were measured in one drop of blood using an Exactive Vital (MictoTech Medical) blood glucose monitor. […]
# as §1, with “allodynia:” for “allodynia evaluation:”, “of” for “of paw”, “threshold” for “threshold (PWT)”, “method (Dixon, 1980; Chaplan et al., 1994).” for “method.”
# Von Frey readings are taken at baseline (pre-STZ), at D9 and at D11 post-STZ (neuropathic/allodynia baseline) and 2 hours post dose on D14. Von-Frey readings are repeated twice per week up to 3 weeks post-STZ (1 week post nanoparticles dosing). […]
compound,measurement,setting,value
CC(C)C[C@H](CN)CC(=O)O [Pregabalin],"PWT, allodynic response (positive control)",[1],rescued the allodynic response and recovered the PWT to the healthy baseline levels
same,PWT levels compared to ‘Vehicle/Vehicle’ group (not neuropathic),[2],not significantly different from the ‘Vehicle/Vehicle’ group (not neuropathic) on any of the test days
same,PWT levels compared to “STZ/Vehicle” group,[3],significantly different from the “STZ/Vehicle” group on all days tested
